According to ChEMBL document CHEMBL3046607, “Synthesis and Herbicidal Activity of New 1-Alkyl-3-aryloxypyrazole-4-carboxamide Derivatives” (J Pestic Sci, 2004):
Activity calls are given as the source filed them. The rule behind the calls is not given here.

Experiments:
[1] = test system: Echinochloa oryzicola; experiment: Pre-emergence herbicidal activity against Echinochloa oryzicola at 33 g a.i/ha measured after 14 days; format: functional, organism-based
[2] = test system: Echinochloa oryzicola; experiment: Pre-emergence herbicidal activity against Echinochloa oryzicola assessed as bleaching of stem/leaf parts; format: functional, organism-based
[3] = test system: Pontederia vaginalis; experiment: Pre-emergence herbicidal activity against Monochoria vaginalis at 33 g a.i/ha measured after 14 days; format: functional, organism-based
[4] = test system: Lindernia procumbens; experiment: Pre-emergence herbicidal activity against Lindernia procumbens assessed as bleaching of stem/leaf parts; format: functional, organism-based
[5] = test system: Lindernia procumbens; experiment: Post-emergence herbicidal activity against Lindernia procumbens assessed as bleaching of stem/leaf parts; format: functional, organism-based; also: test concentration or dose not given here
[6] = test system: Echinochloa oryzicola; experiment: Post-emergence herbicidal activity against Echinochloa oryzicola assessed as bleaching of stem/leaf parts; format: functional, organism-based
[7] = test system: Schoenoplectiella juncoides; experiment: Post-emergence herbicidal activity against Schoenoplectiella juncoides assessed as bleaching of stem/leaf parts; format: functional, organism-based; also: test concentration or dose not given here
[8] = test system: Rotala indica; experiment: Pre-emergence herbicidal activity against Rotala indica assessed as bleaching of stem/leaf parts; format: functional, organism-based
[9] = test system: Ammannia multiflora; experiment: Post-emergence herbicidal activity against Ammannia multiflora assessed as bleaching of stem/leaf parts; format: functional, organism-based
[10] = test system: Schoenoplectiella juncoides; experiment: Pre-emergence herbicidal activity against Schoenoplectiella juncoides assessed as bleaching of stem/leaf parts; format: functional, organism-based
[11] = test system: Ammannia multiflora; experiment: Pre-emergence herbicidal activity against Ammannia multiflora assessed as bleaching of stem/leaf parts; format: functional, organism-based
[12] = test system: Pontederia vaginalis; experiment: Pre-emergence herbicidal activity against Monochoria vaginalis assessed as bleaching of stem/leaf parts; format: functional, organism-based
[13] = test system: Rotala indica; experiment: Post-emergence herbicidal activity against Rotala indica assessed as bleaching of stem/leaf parts; format: functional, organism-based
[14] = test system: Ammannia multiflora; experiment: Pre-emergence herbicidal activity against Ammannia multiflora at 33 g a.i/ha measured after 14 days; format: functional, organism-based
[15] = test system: Elatine triandra; experiment: Pre-emergence herbicidal activity against Elatine triandra at 33 g a.i/ha measured after 14 days; format: functional, organism-based
[16] = test system: Pontederia vaginalis; experiment: Post-emergence herbicidal activity against Monochoria vaginalis assessed as bleaching of stem/leaf parts; format: functional, organism-based
[17] = test system: Cyperus difformis; experiment: Post-emergence herbicidal activity against Cyperus difformis assessed as bleaching of stem/leaf parts; format: functional, organism-based; also: test concentration or dose not given here
[18] = test system: Elatine triandra; experiment: Pre-emergence herbicidal activity against Elatine triandra assessed as bleaching of stem/leaf parts; format: functional, organism-based
[19] = test system: Cyperus difformis; experiment: Pre-emergence herbicidal activity against Cyperus difformis assessed as bleaching of stem/leaf parts; format: functional, organism-based
[20] = test system: Oryza sativa; experiment: Phytotoxicity against Oryza sativa cv. Koshihikari (rice) at 33 g a.i/ha measured after 14 days; format: organism-based; conditions: in vivo, 336 h
[21] = test system: Elatine triandra; experiment: Post-emergence herbicidal activity against Elatine triandra assessed as bleaching of stem/leaf parts; format: functional, organism-based; also: test concentration or dose not given here
[22] = test system: Lindernia procumbens; experiment: Pre-emergence herbicidal activity against Lindernia procumbens at 33 g a.i/ha measured after 14 days; format: functional, organism-based
[23] = test system: Schoenoplectiella juncoides; experiment: Pre-emergence herbicidal activity against Schoenoplectiella juncoides at 33 g a.i/ha measured after 14 days; format: functional, organism-based
[24] = test system: Rotala indica; experiment: Pre-emergence herbicidal activity against Rotala indica at 33 g a.i/ha measured after 14 days; format: functional, organism-based
[25] = test system: Cyperus difformis; experiment: Pre-emergence herbicidal activity against Cyperus difformis at 33 g a.i/ha measured after 14 days; format: functional, organism-based

Row | Structure (SMILES) | Activity [1] | Activity [2] | Activity [3] | Activity [4] | Activity [5] | Activity [6] | Activity [7] | Activity [8] | Activity [9] | Activity [10] | Activity [11] | Activity [12] | Activity [13] | Activity [14] | Activity [15] | Activity [16] | Activity [17] | Activity [18] | Activity [19] | Activity [20] | also measured
1 | CC(C)n1cc(C(=O)Nc2ccc(F)cc2F)c(Oc2cccc(C(F)(F)F)c2)n1 | inactive | Active | inactive | Active | Active | Active | Active | Active | Active | Active | Active | Active | Active | inactive | inactive | Active | Active | Active | Active | Non-toxic | Activity [21]: Active; Activity [22]: inactive; Activity [23]: inactive; Activity [24]: inactive; Activity [25]: inactive
2 | Cn1cc(C(=O)Nc2ccc(F)cc2Cl)c(Oc2cccc(C(F)(F)F)c2)n1 | Active | Active | Active | Active | Active | Active | Active | Active | Active | Active | Active | Active | Active | Active | Active | Active | Active | Active | Active | Non-toxic | Activity [21]: Active; Activity [22]: Active; Activity [23]: Active; Activity [24]: Active; Activity [25]: Active
3 | Cn1cc(C(=O)Nc2ccc(Cl)cc2Cl)c(Oc2cccc(C(F)(F)F)c2)n1 | inactive | Active | Active | Active | Active | Active | Active | Active | Active | Active | Active | Active | Active | Active | Active | Active | Active | Active | Active | Non-toxic | Activity [21]: Active; Activity [22]: Active; Activity [23]: inactive; Activity [24]: Active; Activity [25]: Active
4 | O=C(Nc1ccc(F)cc1F)c1cn(CCF)nc1Oc1cccc(C(F)(F)F)c1 | inactive | Active | inactive | Active | Active | Active | Active | Active | Active | Active | Active | Active | Active | inactive | inactive | Active | Active | Active | Active | Non-toxic | Activity [21]: Active; Activity [22]: inactive; Activity [23]: inactive; Activity [24]: inactive; Activity [25]: inactive
5 | CCCn1cc(C(=O)Nc2ccc(F)cc2F)c(Oc2cccc(C(F)(F)F)c2)n1 | inactive | Active | inactive | Active | Active | Active | Active | Active | Active | Active | Active | Active | Active | inactive | inactive | Active | Active | Active | Active | Non-toxic | Activity [21]: Active; Activity [22]: inactive; Activity [23]: inactive; Activity [24]: inactive; Activity [25]: inactive
6 | Cn1cc(C(=O)Nc2cccc(F)c2F)c(Oc2cccc(C(F)(F)F)c2)n1 | inactive | Active | Active | Active | Active | Active | Active | Active | Active | Active | Active | Active | Active | Active | Active | Active | Active | Active | Active | Non-toxic | Activity [21]: Active; Activity [22]: Active; Activity [23]: inactive; Activity [24]: Active; Activity [25]: Active
